Legend:
Assay type in all cases: in vivo, mouse (female CDF1 mice)
[1] = tested on: Mouse colon cancer, Colon26; assay: Antitumor effect of compounds 2 and 3 (Test Example 4); conditions: single i.v. at maximum tolerance dose (conjugates 200 mg/kg as DTX, DTX 100 mg/kg)
Text: Mouse colon cancer, Colon26, maintained by serial subcutaneous subculture in mice was minced into about 2-mm square fragments, and the fragments were subcutaneously transplanted on the dorsal part of female CDF1 mice with a trocar. Seven days after tumor transplantation, the polymer conjugates of the present invention (compound 2 and compound 3) and the control drug (docetaxel, DTX) were each intravenously administered once to the mouse tail vein at the respective maximum tolerance dose. The compound 2 and compound 3 were dissolved in 5% glucose solution for injection to a level for the use at a dose of 200 mg/kg as DTX. DTX to be used was prepared by dissolving a commercially available Taxotere injection (for 100 mg/kg use) in a vehicle solution attached to the product, and diluting it with physiological saline at the time of use. After the administration, the major axis (L mm) and minor axis (W mm) of the tumor were measured using a caliper, and the tumor volume was calculated by the formula: (L×W^2)/2.

[2] = tested on: Mouse colon cancer, Colon26; assay: Antitumor effect of compound 4 (Test Example 5); conditions: single i.v. at maximum tolerance dose (compound 4 200 mg/kg as DTX, DTX 100 mg/kg)
Method: Mouse colon cancer, Colon26, maintained by serial subcutaneous subculture in mice was minced into about 2-mm square fragments, and these fragments were subcutaneously transplanted on the dorsal part of female CDF1 mice with a trocar. Seven days after tumor transplantation, the polymer conjugate of the present invention (compound 4) or the control drug (docetaxel, DTX) was intravenously administered once to the mouse tail vein at the maximum tolerance dose. The compound 4 was dissolved in a 5% glucose solution for injection at a level for the use at a dose of 200 mg/kg as DTX. DTX to be used was prepared by dissolving a commercially available Taxotere injection (for the use at a dose of 100 mg/kg use) with a vehicle solution attached to the product and diluting it with physiological saline at the time of use. After the administration, the major axis (L mm) and minor axis (W mm) of the tumor were measured using a caliper, and the tumor volume was calculated by the formula: (L×W^2)/2.

[3] = tested on: Mouse colon cancer, Colon26; assay: Antitumor effect of compound 1 (Test Example 3); conditions: i.v. three times (Day 0, 4, 8), 200 mg/kg as PTX
Method: Mouse colon cancer, Colon26, maintained by serial subcutaneous subculture in mice was minced into about 2-mm square fragments, and the fragments were subcutaneously transplanted on the dorsal part of female CDF1 mice with a trocar. Seven days after tumor transplantation, the polymer conjugate of the present invention (compound 1) or the control drug (paclitaxel, PTX) was administered intravenously to the mouse tail vein three times at an interval of 4 days (Day 0, Day 4 and Day 8 in Table 1) at a dose of 200 mg/kg as PTX. The compound 1 was dissolved in a 5% glucose solution for injection and used. PTX was dissolved in anhydrous ethanol and cremophor (manufactured by Sigma Co., Ltd) and diluted with physiological saline at the time of use. After the administration, the major axis (L mm) and minor axis (W mm) of the tumor were measured using a caliper, and the volume of the tumor was calculated by the formula: (L×W^2)/2.

Row | SMILES | relative tumor volume ([1]; Day 0 after administration) | relative tumor volume ([1]; Day 2 after administration) | relative tumor volume ([1]; Day 4 after administration) | relative tumor volume ([1]; Day 7 after administration) | relative tumor volume ([1]; Day 10 after administration) | relative tumor volume ([2]; Day 0 after administration) | relative tumor volume ([2]; Day 3 after administration) | relative tumor volume ([2]; Day 5 after administration) | relative tumor volume ([2]; Day 7 after administration) | relative tumor volume ([2]; Day 10 after administration) | relative tumor volume ([3]; Day 0 after administration initiation) | relative tumor volume ([3]; Day 4 after administration initiation) | relative tumor volume ([3]; Day 8 after administration initiation) | relative tumor volume ([3]; Day 11 after administration initiation)
1 | CC(=O)O[C@@]12CO[C@@H]1C[C@H](O)[C@@]1(C)C(=O)[C@H](O)C3=C(C)[C@@H](OC(=O)[C@H](O)[C@@H](NC(=O)OC(C)(C)C)c4ccccc4)C[C@@](O)([C@@H](OC(=O)c4ccccc4)[C@H]21)C3(C)C [DTX, docetaxel] | 1.00 | 1.61 | 1.57 | 2.30 | 5.85 | 1.00 | 1.17 | 1.17 | 2.17 | 5.75 |  |  |  | 
2 | CC(=O)O[C@H]1C(=O)[C@@]2(C)[C@H]([C@H](OC(=O)c3ccccc3)[C@]3(O)C[C@H](OC(=O)[C@H](O)[C@@H](NC(=O)c4ccccc4)c4ccccc4)C(C)=C1C3(C)C)[C@]1(OC(C)=O)CO[C@@H]1C[C@@H]2O [Paclitaxel, paclitaxel] |  |  |  |  |  |  |  |  |  |  | 1 | 3.28 | 4.75 | 4.07

From US8323669B2, “Polymer conjugate of taxane” (priority 2006, dated 2012)
